# Measured values taken from ChEMBL document CHEMBL1145891, “Design and synthesis of trans-3-(2-(4-((3-(3-(5-methyl-1,2,4-oxadiazolyl))- phenyl)carboxamido)cyclohexyl)ethyl)-7-methylsulfonyl-2,3,4,5-tetrahydro-1H-3-benzazepine (SB-414796): a potent and selective dopamine D3 receptor antagonist” (J Med Chem, 2003).
# Key:
# D(3) dopamine receptor = D(3) dopamine receptor (Homo sapiens, UniProt P35462); assay: Binding affinity against human Dopamine receptor D3 expressed in CHO cells by using [125I]iodosulpiride as radioligand; assay type: cell-based
# Sequence of D(3) dopamine receptor (P35462 whole entry): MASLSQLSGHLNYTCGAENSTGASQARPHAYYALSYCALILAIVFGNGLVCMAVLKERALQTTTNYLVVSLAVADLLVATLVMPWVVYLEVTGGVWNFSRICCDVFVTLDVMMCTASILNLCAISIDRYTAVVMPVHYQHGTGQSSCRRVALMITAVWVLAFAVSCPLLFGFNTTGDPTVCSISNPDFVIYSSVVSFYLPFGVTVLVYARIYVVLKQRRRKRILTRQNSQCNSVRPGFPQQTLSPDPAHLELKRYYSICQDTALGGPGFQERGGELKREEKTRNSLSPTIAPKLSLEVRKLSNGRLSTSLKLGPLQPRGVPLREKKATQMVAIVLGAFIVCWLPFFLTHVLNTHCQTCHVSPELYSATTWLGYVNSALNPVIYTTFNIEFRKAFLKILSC
# D(2) dopamine receptor = D(2) dopamine receptor (Homo sapiens, UniProt P14416); assay: Binding affinity against human Dopamine receptor D2 expressed in CHO cells by using [125I]iodosulpiride as radioligand; assay type: cell-based
# Sequence of D(2) dopamine receptor (P14416 whole entry): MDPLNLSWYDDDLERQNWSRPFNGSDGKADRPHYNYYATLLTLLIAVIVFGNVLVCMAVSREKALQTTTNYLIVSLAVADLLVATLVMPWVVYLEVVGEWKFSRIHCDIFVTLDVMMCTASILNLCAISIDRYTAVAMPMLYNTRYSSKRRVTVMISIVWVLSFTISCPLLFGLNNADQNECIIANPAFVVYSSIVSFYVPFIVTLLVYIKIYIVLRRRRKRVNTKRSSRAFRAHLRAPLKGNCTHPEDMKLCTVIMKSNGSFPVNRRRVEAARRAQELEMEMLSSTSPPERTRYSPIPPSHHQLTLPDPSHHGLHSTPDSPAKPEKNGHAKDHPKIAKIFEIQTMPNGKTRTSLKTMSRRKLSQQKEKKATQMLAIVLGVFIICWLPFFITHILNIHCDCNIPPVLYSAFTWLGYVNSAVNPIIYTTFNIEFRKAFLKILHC
Structure (SMILES),Ki (D(3) dopamine receptor),Ki (D(2) dopamine receptor)
CS(=O)(=O)Oc1ccc2c(c1)CCN(CC[C@H]1CC[C@H](NC(=O)c3cccc4ncccc34)CC1)CC2,2 nM,200 nM
COc1ccc(/C=C/C(=O)N[C@H]2CC[C@H](CCN3CCc4ccc(OS(C)(=O)=O)cc4CC3)CC2)cc1,1 nM,31.6 nM
CS(=O)(=O)Oc1ccc2c(c1)CCN(CC[C@H]1CC[C@H](NC(=O)/C=C/c3cccc(F)c3)CC1)CC2,1.26 nM,
COc1ccccc1/C=C/C(=O)N[C@H]1CC[C@H](CCN2CCc3ccc(OS(C)(=O)=O)cc3CC2)CC1,1.26 nM,100 nM
CS(=O)(=O)Oc1ccc2c(c1)CCN(CC[C@H]1CC[C@H](NC(=O)/C=C/c3ccc(F)cc3)CC1)CC2,0.794 nM,63.1 nM
CS(=O)(=O)Oc1ccc2c(c1)CCN(CC[C@H]1CC[C@H](NC(=O)/C=C/c3ccccc3F)CC1)CC2,1.26 nM,
Cc1ccc2c(C(=O)N[C@H]3CC[C@H](CCN4CCc5ccc(S(C)(=O)=O)cc5CC4)CC3)cccc2n1,3.98 nM,316 nM
Cc1cnc(-c2cccc(C(=O)N[C@H]3CC[C@H](CCN4CCc5ccc(S(C)(=O)=O)cc5CC4)CC3)c2)o1,7.94 nM,631 nM
Cc1ncc(-c2cccc(C(=O)N[C@H]3CC[C@H](CCN4CCc5ccc(S(C)(=O)=O)cc5CC4)CC3)c2)o1,6.31 nM,631 nM
CS(=O)(=O)c1ccc2c(c1)CCN(CC[C@H]1CC[C@H](NC(=O)/C=C/c3ccc(F)cc3)CC1)CC2,1 nM,79.4 nM
Cc1cnc(-c2cccc(C(=O)N[C@H]3CC[C@H](CCN4CCc5ccc(OS(C)(=O)=O)cc5CC4)CC3)c2)o1,3.16 nM,316 nM
Cc1ccc2c(C(=O)N[C@H]3CC[C@H](CCN4CCc5ccc(S(C)(=O)=O)cc5CC4)CC3)ccc(F)c2n1,3.16 nM,794 nM
CS(=O)(=O)c1ccc2c(c1)CCN(CC[C@H]1CC[C@H](NC(=O)/C=C/c3cc(F)cc(F)c3)CC1)CC2,2 nM,251 nM
CS(=O)(=O)c1ccc2c(c1)CCN(CC[C@H]1CC[C@H](NC(=O)/C=C/c3cccc(F)c3)CC1)CC2,1.58 nM,126 nM
Cc1ccc2c(C(=O)N[C@H]3CC[C@H](CCN4CCc5ccc(OS(C)(=O)=O)cc5CC4)CC3)cccc2n1,1.26 nM,200 nM
CS(=O)(=O)c1ccc2c(c1)CCN(CC[C@H]1CC[C@H](NC(=O)/C=C/c3ccccc3C#N)CC1)CC2,1.58 nM,158 nM

Structure (SMILES),Ki (D(3) dopamine receptor),Ki (D(2) dopamine receptor)
Cc1cc(-c2cccc(C(=O)N[C@H]3CC[C@H](CCN4CCc5ccc(OS(C)(=O)=O)cc5CC4)CC3)c2)on1,2 nM,158 nM
Cc1nc(-c2cccc(C(=O)N[C@H]3CC[C@H](CCN4CCc5ccc(OS(C)(=O)=O)cc5CC4)CC3)c2)no1,2.51 nM,200 nM
Cc1cc(-c2cccc(C(=O)N[C@H]3CC[C@H](CCN4CCc5ccc(S(C)(=O)=O)cc5CC4)CC3)c2)on1,3.98 nM,501 nM
Cc1ncc(-c2cccc(C(=O)N[C@H]3CC[C@H](CCN4CCc5ccc(OS(C)(=O)=O)cc5CC4)CC3)c2)o1,1.26 nM,200 nM
CS(=O)(=O)c1ccc2c(c1)CCN(CC[C@H]1CC[C@H](NC(=O)/C=C/c3cccc(C#N)c3)CC1)CC2,2 nM,158 nM
Cc1coc(-c2cccc(C(=O)N[C@H]3CC[C@H](CCN4CCc5ccc(OS(C)(=O)=O)cc5CC4)CC3)c2)n1,3.16 nM,200 nM
CS(=O)(=O)Oc1ccc2c(c1)CCN(CC[C@H]1CC[C@H](NC(=O)c3cccc(-n4cccc4)c3)CC1)CC2,3.16 nM,251 nM
CS(=O)(=O)Oc1ccc2c(c1)CCN(CC[C@H]1CC[C@H](NC(=O)c3cccc4ccccc34)CC1)CC2,2.51 nM,316 nM
Cc1cc(C(=O)N[C@H]2CC[C@H](CCN3CCc4ccc(OS(C)(=O)=O)cc4CC3)CC2)c2ccccc2n1,20 nM,631 nM
CS(=O)(=O)c1ccc2c(c1)CCN(CC[C@H]1CC[C@H](NC(=O)/C=C/c3c(F)cccc3F)CC1)CC2,2.51 nM,398 nM
COc1cccc(/C=C/C(=O)N[C@H]2CC[C@H](CCN3CCc4ccc(OS(C)(=O)=O)cc4CC3)CC2)c1,2 nM,63.1 nM
CS(=O)(=O)c1ccc2c(c1)CCN(CC[C@H]1CC[C@H](NC(=O)/C=C/c3ccccc3F)CC1)CC2,1.26 nM,126 nM
CS(=O)(=O)c1ccc2c(c1)CCN(CC[C@H]1CC[C@H](NC(=O)/C=C/c3ccc(C#N)cc3)CC1)CC2,2 nM,126 nM
Cn1nccc1-c1cccc(C(=O)N[C@H]2CC[C@H](CCN3CCc4ccc(S(C)(=O)=O)cc4CC3)CC2)c1,3.16 nM,501 nM
CS(=O)(=O)Oc1ccc2c(c1)CCN(CC[C@H]1CC[C@H](NC(=O)c3cccc(-c4ncccn4)c3)CC1)CC2,2 nM,316 nM
